In patent US10344004B2, “Inhibitor of the mutated isocitrate dehydrogenase IDH1 R132H” (Bayer Pharma Aktiengesellschaft, priority 2015, dated 2019):

Experiment: Relative oral bioavailability (FRel experiment) in Wistar rats
Assay type: in vivo
Description: The relative bioavailability was determined by studies in Wistar rats.
Compound A was firstly administered orally in the form of a solution. For this purpose, the active ingredient was dissolved in a mixture of 80% polyethylene glycol having an average molecular weight of 400 (PEG400) and 20% water. The active ingredient solution is the reference point for determining the relative bioavailability (formulation A1).
Compound A was also administered orally in the form of a tylose suspension (formulation A2).
Compound B was likewise administered orally in the form of a tylose suspension (formulation B).
To prepare a 0.5% aqueous tylose suspension (w/v), tylose was stirred and swelled for about 12 hours in pure water, whereupon a viscous mixture was formed. Compound A and compound B were each ground into the viscous mixture, whereupon the corresponding tylose suspensions were formed (formulation A2 and formulation B).
FIGS. 1a, 1b and 1c show the plasma concentrations of the active ingredient 3-(2-{[4-(trifluoromethoxy)phenyl]amino}-1-[(1R,5R)-3,3,5-trimethylcyclohexyl]-1H-benzimidazol-5-yl)propanoic acid (active ingredient API) after oral administration of compound A in the form of a solution (formulation A1, FIG. 1a), after oral administration of compound A in the form of a suspension (formulation A2, FIG. 1b) and after oral administration of compound B in the form of a suspension (formulation B, FIG. 1c).
For formulation A1, 5 mL/kg body weight were administered. This corresponded to an amount of active ingredient API of 10 mg/kg.
For formulation A2, 5 mL/kg body weight were administered. This corresponded to an amount of active ingredient API of 10 mg/kg.
For formulation B, 2 mL/kg body weight were administered. […]
Plasma concentrations were determined by collecting about 0.4 mL of blood in each case via an indwelling venous catheter. […] The plasma samples were analyzed by LC/MS/MS with respect to the active ingredient 3-(2-{[4-(trifluoromethoxy)phenyl]amino}-1-[(1R,5R)-3,3,5-trimethylcyclohexyl]-1H-benzimidazol-5-yl)propanoic acid.

bioavailability (rat, plasma, tylose suspension (formulation A2), 10 mg/kg API, relative to PEG400/water solution (formulation A1))	Compound	bioavailability in the FRel experiment (tylose suspension (formulation B), 10.6 mg/kg API, relative to PEG400/water solution of compound A (formulation A1))	bioavailability compared with the pure free acid (tylose suspensions, comparison in words)
25%	C[C@H]1C[C@@H](n2c(Nc3ccc(OC(F)(F)F)cc3)nc3cc(CCC(=O)O)ccc32)CC(C)(C)C1 [Compound A, 3-(2-{[4-(trifluoromethoxy)phenyl]amino}-1-[(1R,5R)-3,3,5-trimethylcyclohexyl]-1H-benzimidazol-5-yl)propanoic acid]		
	(2E)-but-2-enedioic acid-3-(2-{[4-(trifluoromethoxy)phenyl]amino}-1-[(1R,5R)-3,3,5-trimethylcyclohexyl]-1H-benzimidazol-5-yl)propanoic acid (1:4) [Compound B]	110%	distinctly higher bioavailability
